Reference: patent publication US12577206B2 (BRISTOL-MYERS SQUIBB COMPANY, priority 2020, dated 2026)

What was measured:
[1] = biological target: T1, human FPR2 (Homo sapiens, UniProt P25090); test: FPR2 cyclic adenosine monophosphate (cAMP) assay; format: cell-based; conditions: CHO cells overexpressing human FPR2; forskolin 5 μM; inhibition of cAMP production; HTRF; read-out: hFPR2 cAMP2 EC50
T1 sequence (P25090 1-351): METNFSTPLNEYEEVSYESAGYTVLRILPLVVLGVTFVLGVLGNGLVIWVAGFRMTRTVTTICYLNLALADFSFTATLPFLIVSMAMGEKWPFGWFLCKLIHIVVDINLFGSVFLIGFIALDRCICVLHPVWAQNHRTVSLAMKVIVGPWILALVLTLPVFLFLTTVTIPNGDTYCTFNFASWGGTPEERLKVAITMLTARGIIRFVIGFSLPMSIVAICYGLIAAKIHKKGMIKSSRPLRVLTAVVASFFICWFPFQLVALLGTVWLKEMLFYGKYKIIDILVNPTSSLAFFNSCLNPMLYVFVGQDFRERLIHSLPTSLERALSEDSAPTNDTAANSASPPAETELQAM
In short: (§1)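 Gi-coupled activity is read as suppression of forskolin-stimulated cAMP (10 μM final for FPR1, 5 μM final for FPR2; IBMX 200 μM final) in recombinant CHO cells, 30 min incubation at rt, HTRF detection.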

[2] = biological target: T2, human FPR1 (Homo sapiens, UniProt P21462); test: FPR1 cyclic adenosine monophosphate (cAMP) assay; format: cell-based; conditions: CHO cells overexpressing human FPR1; forskolin 10 μM; inhibition of cAMP production; HTRF; read-out: hFPR1 cAMP2 EC50
T2 sequence (P21462 1-350): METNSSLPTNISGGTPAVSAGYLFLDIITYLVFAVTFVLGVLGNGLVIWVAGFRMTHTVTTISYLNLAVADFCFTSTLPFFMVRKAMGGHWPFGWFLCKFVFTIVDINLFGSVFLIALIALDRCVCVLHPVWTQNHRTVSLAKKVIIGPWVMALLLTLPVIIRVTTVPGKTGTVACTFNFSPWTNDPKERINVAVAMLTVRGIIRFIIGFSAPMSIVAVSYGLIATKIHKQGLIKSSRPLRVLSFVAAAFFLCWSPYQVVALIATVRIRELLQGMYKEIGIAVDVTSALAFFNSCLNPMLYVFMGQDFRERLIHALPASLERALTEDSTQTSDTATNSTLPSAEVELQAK
In short: as §1

Compound | EC50 [1] [nM] | EC50 [2] [µM]
COc1cc(F)c(-c2c(NC(=O)c3ccc(OC(F)(F)F)cc3)c(=O)n(-c3cccc(Cl)c3Cl)n2C)c(F)c1 [Example 35, N-[2-(2,3-dichlorophenyl)-5-(2,6-difluoro-4-methoxyphenyl)-1-methyl-3-oxo-2,3-dihydro-1H-pyrazol-4-yl]-4-(trifluoromethoxy)benzamide] | 6 | 1.7
COc1cc(C)nc(-n2c(=O)c(NC(=O)c3ccc(OC(F)F)cc3)c(-c3c(F)cc(OC)cc3F)n2C)c1 [Example 376, N-(5-(2,6-Difluoro-4-methoxyphenyl)-2-(4-methoxy-6-methylpyridin-2-yl)-1-methyl-3-oxo-2,3-dihydro-1H-pyrazol-4-yl)-4-(difluoromethoxy)benzamide] | 5 | > 10
COc1cc(F)c(-c2c(NC(=O)c3ccc(OC(F)F)cc3)c(=O)n(-c3nc(NCC4(CO)CCC4)ccc3C(F)(F)F)n2C)c(F)c1 [Example 290, N-[5-(2,6-difluoro-4-methoxyphenyl)-2-[6-({[1-(hydroxymethyl)cyclobutyl]-methyl}amino)-3-(trifluoromethyl)pyridin-2-yl]-1-methyl-3-oxo-2,3-dihydro-1H-pyrazol-4-yl]-4-(difluoromethoxy)benzamide] | 1 | > 10
COc1cc(F)c(-c2c(NC(=O)c3ccc(OC(F)F)cc3)c(=O)n(-c3cc(C)cc(OC4CCOC4)n3)n2C)c(F)c1 (stereo not shown) [Example 359, N-(5-(2,6-Difluoro-4-methoxyphenyl)-1-methyl-2-(4-methyl-6-((tetrahydrofuran-3-yl)oxy)pyridin-2-yl)-3-oxo-2,3-dihydro-1H-pyrazol-4-yl)-4-(difluoromethoxy)benzamide] | 5 | > 10
COc1cc(F)c(-c2c(NC(=O)c3ccc(OC(F)F)cc3)c(=O)n(-c3cccc(N4CCCCC4=O)n3)n2C)c(F)c1 [Example 150, N-[5-(2,6-difluoro-4-methoxyphenyl)-1-methyl-3-oxo-2-[6-(2-oxopiperidin-1-yl)pyridin-2-yl]-2,3-dihydro-1H-pyrazol-4-yl]-4-(difluoromethoxy)benzamide] | 13 | 1.5
COc1cc(F)c(-c2c(NC(=O)c3ccc(OC(F)F)cc3)c(=O)n(-c3nc(N4CC(OC(C)C)C4)ccc3C(F)(F)F)n2C)c(F)c1 [Example 140, N-[5-(2,6-difluoro-4-methoxyphenyl)-1-methyl-3-oxo-2-{6-[3-(propan-2-yloxy)azetidin-1-yl]-3-(trifluoromethyl)pyridin-2-yl}-2,3-dihydro-1H-pyrazol-4-yl]-4-(difluoromethoxy)benzamide] | 4 | 1.5
COc1cc(OCCO)nc(-n2c(=O)c(NC(=O)c3ccc(OC(F)F)cc3)c(-c3c(F)cc(OC)cc3F)n2C)c1 [Example 332, N-(5-(2,6-Difluoro-4-methoxyphenyl)-2-(6-(2-hydroxyethoxy)-4-methoxypyridin-2-yl)-1-methyl-3-oxo-2,3-dihydro-1H-pyrazol-4-yl)-4-(difluoromethoxy)benzamide] | 3 | > 10
COc1cc(F)c(-c2c(NC(=O)c3ccc(OC(F)F)cc3)c(=O)n(-c3nc(Cl)ccc3N3CC(C)(O)C3)n2C)c(F)c1 [Example 203, N-{2-[6-chloro-3-(3-hydroxy-3-methylazetidin-1-yl)pyridin-2-yl]-5-(2,6-difluoro-4-methoxyphenyl)-1-methyl-3-oxo-2,3-dihydro-1H-pyrazol-4-yl}-4-(difluoromethoxy)benzamide] | 5 | > 10
COc1cc(F)c(-c2c(NC(=O)c3ccc(OC(F)(F)F)cc3)c(=O)n(-c3ncccc3Cl)n2C)c(F)c1 [Example 41, N-[2-(3-chloropyridin-2-yl)-5-(2,6-difluoro-4-methoxyphenyl)-1-methyl-3-oxo-2,3-dihydro-1H-pyrazol-4-yl]-4-(trifluoromethoxy)benzamide] | 7 | 2.1
COc1cc(F)c(-c2c(NC(=O)c3ccc(Cl)cc3)c(=O)n(-c3ccc(C)cn3)n2C)c(F)c1 [Example 48, 4-chloro-N-[5-(2,6-difluoro-4-methoxyphenyl)-1-methyl-2-(5-methylpyridin-2-yl)-3-oxo-2,3-dihydro-1H-pyrazol-4-yl]benzamide] | 43 | > 10
COc1cc(OCC(O)C(F)(F)F)nc(-n2c(=O)c(NC(=O)c3ccc(OC(F)F)cc3)c(-c3c(F)cc(OC)cc3F)n2C)c1 (stereo not shown) [Example 380, N-(5-(2,6-Difluoro-4-methoxyphenyl)-2-(4-methoxy-6-(3,3,3-trifluoro-2-hydroxypropoxy)pyridin-2-yl)-1-methyl-3-oxo-2,3-dihydro-1H-pyrazol-4-yl)-4-(difluoromethoxy)benzamide] | 2 | 2.3
COc1cc(F)c(-c2c(NC(=O)c3ccc(OC(F)F)cc3)c(=O)n(-c3nc(NC4(CO)CC4)ccc3C(F)(F)F)n2C)c(F)c1 [Example 231, N-[5-(2,6-difluoro-4-methoxyphenyl)-2-(6-{[1-(hydroxymethyl)cyclopropyl]amino}-3-(trifluoromethyl)pyridin-2-yl)-1-methyl-3-oxo-2,3-dihydro-1H-pyrazol-4-yl]-4-(difluoromethoxy)benzamide] | 5 | > 10
COc1cc(F)c(-c2c(NC(=O)c3ccc(OC(F)F)cc3)c(=O)n(-c3cc(C)cc(OC4CCOC4)n3)n2C)c(F)c1 (stereo not shown) [Example 360, N-(5-(2,6-Difluoro-4-methoxyphenyl)-1-methyl-2-(4-methyl-6-((tetrahydrofuran-3-yl)oxy)pyridin-2-yl)-3-oxo-2,3-dihydro-1H-pyrazol-4-yl)-4-(difluoromethoxy)benzamide] | 4 | > 10
COc1cc(OCC2CCOC2)nc(-n2c(=O)c(NC(=O)c3ccc(OC(F)F)cc3)c(-c3c(F)cc(OC)cc3F)n2C)c1 (stereo not shown) [Example 351, N-(5-(2,6-Difluoro-4-methoxyphenyl)-2-(4-methoxy-6-((tetrahydrofuran-3-yl)methoxy)pyridin-2-yl)-1-methyl-3-oxo-2,3-dihydro-1H-pyrazol-4-yl)-4-(difluoromethoxy)benzamide] | 2 | > 10
COc1cc(F)c(-c2c(NC(=O)c3ccc(OC(F)F)cc3)c(=O)n(-c3cccc(Cl)c3F)n2C)c(F)c1 [Example 187, N-[2-(3-chloro-2-fluorophenyl)-5-(2,6-difluoro-4-methoxyphenyl)-1-methyl-3-oxo-2,3-dihydro-1H-pyrazol-4-yl]-4-(difluoromethoxy)benzamide] | 4 | 2.2
COc1cc(F)c(-c2c(NC(=O)c3ccc(OC(F)F)cc3)c(=O)n(-c3nc(N4CC(C)(O)C4)ccc3C#N)n2C)c(F)c1 [Example 311, N-{2-[3-cyano-6-(3-hydroxy-3-methylazetidin-1-yl)pyridin-2-yl]-5-(2,6-difluoro-4-methoxyphenyl)-1-methyl-3-oxo-2,3-dihydro-1H-pyrazol-4-yl}-4-(difluoromethoxy)benzamide] | 5 | > 10
CCOC1(c2ccc(C#N)c(-n3c(=O)c(NC(=O)c4ccc(OC(F)F)cc4)c(-c4c(F)cc(OC)cc4F)n3C)n2)CC1 [Example 192, N-{2-[3-cyano-6-(1-ethoxycyclopropyl)pyridin-2-yl]-5-(2,6-difluoro-4-methoxyphenyl)-1-methyl-3-oxo-2,3-dihydro-1H-pyrazol-4-yl}-4-(difluoromethoxy)benzamide] | 4 | > 10
COc1cc(F)c(-c2c(NC(=O)c3ccc(OC(F)(F)F)cn3)c(=O)n(-c3ccccc3)n2C)c(F)c1 [Example 24, N-[5-(2,6-difluoro-4-methoxyphenyl)-1-methyl-3-oxo-2-phenyl-2,3-dihydro-1H-pyrazol-4-yl]-5-(trifluoromethoxy)pyridine-2-carboxamide] | 220 | > 10
COc1cc(F)c(-c2c(NC(=O)c3ccc(OC(F)F)cc3)c(=O)n(-c3cccc(Cl)n3)n2C)c(F)c1 [Example 39, N-[2-(6-chloropyridin-2-yl)-5-(2,6-difluoro-4-methoxyphenyl)-1-methyl-3-oxo-2,3-dihydro-1H-pyrazol-4-yl]-4-(difluoromethoxy)benzamide] | 14 | 3
COCc1ccc(C(F)(F)F)c(-n2c(=O)c(NC(=O)c3ccc(OC(F)F)cc3)c(-c3c(F)cc(OC)cc3F)n2C)n1 [Example 196, N-[5-(2,6-difluoro-4-methoxyphenyl)-2-[6-(methoxymethyl)-3-(trifluoromethyl)pyridin-2-yl]-1-methyl-3-oxo-2,3-dihydro-1H-pyrazol-4-yl]-4-(difluoromethoxy)benzamide] | 9 | > 10
